This note sets out measurements from patent publication US8680153B2, “Method for correcting a lipid imbalance in a subject” (The Royal Institution for the Advancement of …, priority 2005, dated 2014).

One test deals with alveolar cells. The test is described as follows: Alveolar (inflammatory) cells in bronchoalveolar lavage fluid of infected mice. Type of test: in vivo. The protocol: Mouse Lung Infection. Mice were anaesthetized with a combination of ketamine (7.5 mg/mL) and xylazine (0.5 mg/mL) administered intraperitoneally at a dose of 20 mL/kg of body weight. Once the mouse was successfully anaesthetized, the animal was installed under binoculars (Microscope M650, Wild Leitz, Willowdale, ON) in the vertical position and held on a restraining board by holding the animal by its upper incisor teeth (Guilbault, et al. (2005) supra). The tongue was then gently pulled to the side of the mouth and a 26-G gavage needle was inserted into the mouth and guided through the pharynx gently touching the vocal cords to see the lumen of the trachea; the needle was then introduced into the trachea to reach the lung for the bilateral injection of the 50 microliter inoculum. After inoculation, the animal regained righting reflex within an hour. A final dose of 1×10^6 P. aeruginosa was used for infection using wild-type and Cftr-KO mice. Mice were monitored 3 times daily; the maximum weight loss allowed was 15%. Mice were sacrificed by CO2 overdose.
Bronchoalveolar Lavage. Circulation was flushed by slow intracardiac infusion of divalent cation-free Hank's balanced salt solution (HBSS; INVITROGEN™, Mississauga, ON). The trachea was cannulated with a 22-gauge intravenous catheter placement unit (CRITIKON®, GE Medical Systems, Tampa, Fla.) connected to two 5 mL syringes via a 3-way stopcock with a rotating collar (Namic U.S.A., Glens Falls, N.Y.). The alveoli of infected mice were washed 3 times with 1.4 mL of divalent cation-free HBSS. The volume of bronchoalveolar lavage fluid recovered was approximately 1.2 mL. […] Cells were resuspended in 0.5 mL of Dulbecco's Modified Eagle Medium (DMEM; INVITROGEN™) supplemented with 10% fetal bovine serum (FBS; Hyclone, Logan, Utah), diluted in Turk's solution and counted using a hematocytometer. The proportions of macrophages, lymphocytes and PMN were calculated after counting approximately 300 alveolar cells on cytospin preparations stained with DIFF-QUICK® stain (American Scientific Products, McGaw Park, Ill.).

Test [1] concerns DHA levels, DHA/AA ratio, ceramide levels, AA levels. As to the kind of experiment: Systemic lipid parameters in several organs, biweekly treatment for 4 weeks. Particulars: four-week biweekly treatment. The format is in vivo, mice. On the procedure: Fenretinide Diet Supplementation. Examples 2 to 6: fenretinide (Sigma-Aldrich, Oakville, ON) powder was resuspended in 95% ethanol and subsequently incorporated in the Peptamen liquid diet. It was protected from light and kept at 4° C. before being given to the mice (5 mg/kg per day per mouse). Mock-treated diets were prepared similarly by adding ethanol to the Peptamen diet but omitting the fenretinide supplementation. The diet was given every morning for 28 consecutive days with specific monitoring of the quantity consumed by the mice in each cage. Examples 7 to 12: fenretinide powder was kindly provided by Dr. Robert Smith (NIH; Bethesda, Md., USA). Fenretinide was resuspended in 95% ethanol to make a 2 μg/μL concentration. Approximately 40 μL of this preparation was incorporated into the Peptamen liquid diet (5 mg/kg per day per mouse). […] During the treatment period each mouse was kept in a separate cage (including WT mice) and was monitored to ensure that the entire amount of Peptamen containing the fenretinide or with out was consumed. […]
Ceramide/Sphingolipids analysis. The concentration of ceramide in the (lung, liver, ileum, pancreas homogenates) and plasma from mice and humans were determined by ELISA^39;40 on separated lipids samples by thin layer chromatography, as described above. […]

As to `CC1=C(/C=C/C(C)=C/C=C/C(C)=C/C(=O)Nc2ccc(O)cc2)C(C)(C)CCC1` [fenretinide, all-trans-N-(4-hydroxyphenyl) retinamide], the “Mean total number of alveolar cells in the lungs” value was 1.1×10^6±1.3×10^6 in the test with alveolar cells (Cftr-KO mice, day 3 post-infection (p=0.530 vs mock-treated)) and 1.2×10^6±1.0×10^6 in the test on alveolar cells (wild-type mice, day 3 post-infection (p=0.280 vs mock-treated)). Moreover, in the test with alveolar cells (day 3 post-infection, wild-type and Cftr-KO, neutrophils, monocytes, lymphocytes), the “Effect on cells recruited into the lungs of infected mice vs mock-treated” value is recorded as “no effect”. Besides, the “Defect/imbalance in DHA levels, DHA/AA ratio and ceramide levels in all organs” value in test [1] (Cftr-KO and HZ mice) is given as “effective at correcting, at least partially”. Besides, the “AA levels in control organs (heart, kidney and spleen)” value in test [1] (Cftr-KO mice) is on record as “decreases the AA levels to normal”.
